Results on two molecules are retold here after patent publication US20220296536A1, “PAIN MANAGEMENT METHODOLOGY” (priority 2019, published 2022).

The test system of test [1] is pain in a patient. The test can be described thus: earlier pharmaceutical treatment of Patient A's pain. In kind it is in vivo, human. The conditions noted are these: terminal prostate cancer, before use of the method. The text has this:
Patient A was a person having terminal prostate cancer. Patient A was suffering a high level of pain, for which pharmaceutical treatment, even morphine, had become ineffective.

The test system of test [2] is pain in a patient. The protocol:
In each of the examples, below, the method of the invention was used: the patient was aurally isolated in a quiet room, being the waiting room or vestibule to an operating theatre with only the deliverer present during the aural isolation period. The patient was exposed to the repetitive, positive message delivered orally by the deliverer. The chosen period was between 20 and 30 minutes. The deliverer repeated the message constantly during the chosen period. The message was: ‘When I wake up, I will have no pain’.
At the conclusion of the chosen period, the patient was administered propofol and became unconscious.

[3] abbreviates: Example 5, Patient B, hip replacement.

Where two headings read alike, the source gives them in different places.

With `CN1CC[C@]23c4c5ccc(O)c4O[C@H]2[C@@H](O)C=C[C@H]3[C@H]1C5` [morphine], in the test on pain in a patient [1], the “effect of pharmaceutical treatment on high level of pain” value is on record as “ineffective”.
Regarding `CC(C)c1cccc(C(C)C)c1O` [propofol, 2,6-diisopropylphenol], the pain after surgery result with pain in a patient [2] (Example 1, Patient A, terminal prostate cancer, surgery for incontinence problem, from regaining consciousness until three weeks later) was “free of pain”; in the test with pain in a patient [2] (Example 6, Patient B, painful infection within left shoulder, surgery) it was “pain-free”. The pain result with pain in a patient [2] (Example 2, Patient B, bleeding on the brain, skull drilled to drain blood) is listed as “experienced no pain”. Also, the pain post-surgery entry with pain in a patient [2] (Example 3, Patient B, cataract surgery) is “experienced no pain post-surgery”; with pain in a patient [2] (setting [3]), “no pain post-surgery”; in the test on pain in a patient [2] (Example 7, Patient B, osteomyelitis in right hip, stripping of veins and skin graft), “no pain post-surgery”; in the test on pain in a patient [2] (Example 8, Patient B, open-heart surgery to replace aortic valve, three surgeries), “no pain post-surgery each time”; in the test with pain in a patient [2] (Example 9, Patient C, hip replacement) it was “no pain post-surgery”; in the test with pain in a patient [2] (Example 10, Patient D, radical hysterectomy), “experienced no pain post-surgery”. Besides, the post-operative pain entry with pain in a patient [2] (Example 4, Patient B, radical endoscopic sinus surgery) is given as “experienced no post-operative pain”. Also, the recovery entry in the test on pain in a patient [2] (setting [3]) is reported as “accelerated recovery”. In addition, the “time to being ambulatory” value in the test on pain in a patient [2] (Example 5, Patient B, hip replacement, 7 days bed rest normally expected) is “ambulatory within one hour”. Moreover, in the test on pain in a patient [2] (all patients of Examples 1-10, propofol given after 20-30 min aural isolation with message), the “need for pharmaceutical pain relief after use of the method” value was “None of the patients in the examples below required pharmaceutical pain relief”. Further, in the test with pain in a patient [2] (all patients of the examples, when surgery was used), the recovery from surgery result was “All experienced accelerated recovery from surgery”.
